Earlier results as cited in paper PMC10410440, “Preclinical PK investigation of a novel IDO1/TDO dual inhibitor—SHR9146 in mouse plasma and tissues by LC-MS/MS” (Frontiers in Oncology, 2023).

Key:
[1] = system: colon cancer (MC38) cells; parameters: method as in earlier work; settings: SHR9146 combined with the PD-1 antibody vs single PD-1 antibody or SHR9146, and vs PD-1 antibody combined with INCB024360 or NLG0919100; cited from earlier work
advanced solid tumors = system: advanced solid tumors; parameters: method as in doi:10.1200/JCO.2021.39.15_suppl.3101; settings: SHR9146 plus camrelizumab in combination with/without apatinib; cited from earlier work

OCCn1cc(-c2ccc(N3CCC([C@H]4c5c(F)cccc5-c5cncn54)CC3)cc2)cn1 [SHR9146]
inhibitory effect on colon cancer (MC38) cells [1]: significantly better inhibitory effect | antitumor activity and safety in patients (advanced solid tumors): promising antitumor activity with acceptable safety
